The results in this text go back to patent US12486259B2, “FXR agonist having pyrazine structure, and preparation method and use” (JIANGSU TASLY DIYI PHARMACEUTICAL CO., LTD., priority 2020, dated 2025).

A short description of one data set: in vitro. The settings on record: human; for Papp A→B: Caco-2, Papp A-B; for recovery: Caco-2, Recovery rate A-B. The procedure: The bi-directional transport of target compounds from apical side (AP) to basolateral side (BL) and from BL side to AP side is studied by using human colon adenocarcinoma cell line Caco-2 monolayer model. The transport parameters, apparent permeability coefficient (Papp) and efflux ratio are calculated by quantitative analysis with high performance liquid chromatography (HPLC).

The target in data set [1] is T1, GST-labeled recombinant human FXR protein (Homo sapiens, UniProt Q96RI1).
T1 construct: purchased Invitroren (so in the source)
T1 sequence (Q96RI1 262-486 limits assumed): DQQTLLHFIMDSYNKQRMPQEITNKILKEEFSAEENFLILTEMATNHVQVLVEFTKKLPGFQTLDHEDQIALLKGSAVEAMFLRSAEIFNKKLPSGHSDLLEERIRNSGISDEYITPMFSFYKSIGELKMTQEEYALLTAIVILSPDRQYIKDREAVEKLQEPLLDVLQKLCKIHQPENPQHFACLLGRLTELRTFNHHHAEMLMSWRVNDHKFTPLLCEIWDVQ
T1 sequence (Q15788 676-700 partner limits assumed): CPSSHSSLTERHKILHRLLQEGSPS
Nature of the data set: Agonistic activity on FXR receptor (GST-FXR / SRC-1 bead assay, protein level). In kind it is biochemical. The following applies: for EC50: 0.4 nM FXR, 30 nM SRC-1, protein level; for FXR agonistic activity at protein level (in words): judgement on Table 1 results. The procedure:
Experimental procedures: FXR (GST-labeled recombinant human FXR protein, manufacturer: Invitroren, Item number: PV4835) and SRC-1 (steroid receptor co-activator-1) are thawed on ice. Three solutions of ABC are prepared by a buffer solution, solution A, 0.4 n M FXR and 30 nM SRC-1; solution B, 10 ug/ml Acceptor Beads; solution C, 10 ug/ml Donor Beads. Solution A is added to the plate at 15 uL per well. It is incubated at room temperature for 1 hour. Solution B is added to the plate at 7.5 uL per well. It is incubated at room temperature for 1 hour. Solution C is added to the plate at 7.5 uL per well. It is incubated at room temperature for 1 hour. It is read from the microplate reader Envision. The data are curve fitted by using Prism 5.0 to calculate the EC50.

The subject of data set [2] is C57/BL6 mice fed MCD diet. As to the kind of experiment: Pharmacodynamic test in methionine-choline deficient diet (MCD) model of non-alcoholic fatty liver disease. The following applies: MCD mice, obeticholic acid 40 mpk. In kind it is in vivo. The procedure: Animal strain: C57/BL6, Animal Grade: SPF Grade, Gender: male, Animal Age: 8 weeks old, Animals Received Date: 2018 Sep. 28, Animal Source: Shanghai Lingchang Biotechnology Co. Ltd., Animal Certificate No: SCXK (Shanghai)2013-0018 2013001836799, Mouse feeding Environment: temperature 20-26° C., humidity 40-70%, 12 hour day and night cycle.
5% Solutol HS15/Normal saline: after Solutol HS15 (polyethylene glycol 15 hydroxystearate solubilizer) is dissolved in a water bath at 37° C., 5 ml of it is dissolved in 100 ml of normal saline, thoroughly stirred for later use.
Obeticholic acid/5% Solutol HS15/Normal saline: 0.15 ml Solutol HS15 is added to accurately weighed 12 mg obeticholic acid to fully dissolve it, and 2.85 ml normal saline is added, vigorously mixed and dissolved by the ultrasound. • TM-01 Group/5% Solutol HS15/Normal saline: 2.5 ml of 6 mg/ml TM-01 suspension is taken, 2.5 ml of 5% Solutol HS15/normal saline is added, and the mixture is mixed well. • TM-02 Group/5% Solutol HS15/Normal saline: 2.5 ml of 6 mg/ml TM-02 suspension is taken, 2.5 ml of 5% Solutol HS15/normal saline is added, and the mixture is mixed well. • TM-06 Group/5% Solutol HS15/Normal saline: 2.5 ml of 6 mg/ml TM-06 suspension is taken, 2.5 ml of 5% Solutol HS15/Normal saline is added, and the mixture is mixed well. • TM-09 Group/5% Solutol HS15/Normal saline: 2.5 ml of 6 mg/ml TM-09 suspension is taken, 2.5 ml of 5% Solutol HS15/Normal saline is added, and the mixture is mixed well.
Menstruum and test compounds are administered by gavage at a dose volume of 10 ml/kg;
After reaching the animal house, 70 8-week-old C57/BL6 mice are fed adaptively and randomly divided into 7 groups according to body weight after the average body weight reaches 23 g. They are given the model feed. The first group receives the control diet MCS and the remaining groups receive the MCD diet, while each group of mice receives compound treatment as follows: • Group 1. Control Group: MCS, menstruum, administered once daily by gavage; • Group 2. Model Group: MCD, menstruum, administered once daily by gavage; • Group 3. Obeticholic acid group: MCD, 40 mpk obeticholic acid, administered once daily by gavage; • Group 4. TM-01 Group: MCD, 30 mpk TM-01, administered once daily by gavage; • Group 5. TM-02 Group: MCD, 30 mpk TM-02, administered once daily by gavage; • Group 6. TM-06 Group: MCD, 30 mpk TM-06, administered once daily by gavage; • Group 7. TM-09 Group: MCD, 30 mpk TM-09, administered once daily by gavage; 2.4 Experimental Methods
Body weight and food intake are measured weekly during the experiment. Twenty-one days after administration, tail tips are bled with microcapillaries for AST, ALT measurements. Twenty-eight days after administration, mice are terminated, hearts are bled, and liver tissues are collected and weighed. One portion is snap frozen with liquid nitrogen for subsequent analysis and the other portion are fixed for pathological analysis.
Mouse blood is centrifuged at 5000 rpm for 10 minutes and supernatants are collected for determination of TG (triglycerides), TC (total cholesterol), HDL (high density lipoprotein), LDL (low density lipoprotein), AST (aspartate aminotransferase) and ALT (alanine aminotransferase).
AST and ALT after administration for three and four weeks are determined according to the instructions of kit. The blood lipid index 4 weeks after administration is sent to Adicon Medical Laboratory Co. Ltd. for detection.
The livers are removed from −80° C., homogenized in PBS (phosphate buffered saline), extracted with chloroform methanol organic phase, and subjected to TC and TG assays using the kit, normalized for protein content.
Four weeks after administration, the mice are anesthetized. The heart is bled, the liver is isolated and weighed. The right lobe is snapfrozen with liquid nitrogen and stored at −80° C. for liver lipid analysis. The left lobe is isolated and fixed in 10% formalin for subsequent HE and Sirius Red staining. […]

Setting [3] is: blood, 3 weeks, TM 30 mpk, gavage.
The mark [4] stands for this setting: blood, 4 weeks, TM 30 mpk, gavage.
[5] abbreviates: blood, after 4 weeks, TM 30 mpk.
[6] abbreviates: liver, after 4 weeks, TM 30 mpk.

The Papp A→B is how fast a substance crosses the layer from the apical side. Low readings indicate slow passage, high ones fast passage. By EC50 is commonly meant the midpoint of the concentration-response curve.

In the case of `COCCc1ccc(OCC(O)CNC(C)C)cc1` (centres unmarked) [Metoprolol, reference compound], the apical-to-basolateral permeability (Papp A→B) in “in vitro” was found to be 18.1 ×10⁻⁶ cm/s; in “in vitro” (Average) it was 18.1 ×10⁻⁶ cm/s; in the data set “in vitro” (Sample-01) it was 19.5 ×10⁻⁶ cm/s; in “in vitro” (Sample-02), 16.8 ×10⁻⁶ cm/s. Besides, the figures for the recovery in “in vitro” (Average), in the data set “in vitro” (Sample-01) and in “in vitro” (Sample-02) were 93.8%, 93.2% and 94.3%, respectively.
Regarding `Cc1cc(C(=O)O)cc(C2CC(O)(c3cnc(OCc4c(-c5c(Cl)cccc5Cl)noc4-c4ccccc4)cn3)C2)c1` (centres unmarked) [TM-10, 3-(3-(5-((3-(2,6-dichlorophenyl)-5-phenylisoxazol-4-yl)methoxy)pyrazine-2-yl)-3-hydroxycyclobutyl)-5-methyl benzoic acid], in data set [1], the EC50 was found to be 5.66 µM and the “FXR agonistic activity at protein level (in words)” value (shortened to “FXR agonistic activity”) is “poor activity”.
For `O=C(O)c1cccc(C2CC(O)(c3cnc(OCc4c(-c5c(Cl)cccc5Cl)noc4-c4ccccc4)cn3)C2)c1` (centres unmarked) [TM-07, 3-(3-(5-(5-phenyl-3-(2,6-dichlorophenyl)isoxazole-4-ylmethoxy)-2-pyrazine)-1-hydroxycyclobutane) benzoic acid], in data set [1], the EC50 was 4.21 µM and the “FXR agonistic activity” value is “poor activity”.
Take `CS(=O)(=O)c1cccc(C2CC(O)(c3cnc(OCc4c(-c5c(Cl)cccc5Cl)noc4C4CC4)cn3)C2)c1` (centres unmarked) [TM-04, 1-(5-((5-cyclopropyl-3-(2,6-dichlorophenyl)isoxazol-4-yl)methoxy)pyrazine-2-yl)-3-(3-(methylsulfonyl)phenyl) cyclobutanol]: the EC50 in data set [1] came out at 1.35 µM.
As for `CC(C)(C)NCC(O)COc1cccc2c1CC(O)C(O)C2` (centres unmarked) [Nadolol, reference compound], the apparent permeability from apical to basolateral (Papp A→B) in “in vitro” was 0.07 ×10⁻⁶ cm/s; in the data set “in vitro” (Average) it was 0.07 ×10⁻⁶ cm/s; in the data set “in vitro” (Sample-01), 0.07 ×10⁻⁶ cm/s; in “in vitro” (Sample-02), 0.06 ×10⁻⁶ cm/s. Further, the recovery was determined as 89.8% in the data set “in vitro” (Average), 91.5% in the data set “in vitro” (Sample-01) and 88% in the data set “in vitro” (Sample-02).
On to `OC1(c2cnc(OCc3c(-c4c(Cl)cccc4Cl)noc3C3CC3)cn2)CC(c2cccc(Br)c2)C1` (centres unmarked) [TM-03, 3-(3-bromophenyl)-1-(5-((5-cyclopropyl-3-(2,6-dichlorophenyl)isoxazol-4-yl)methoxy)pyrazine-2-yl) cyclobutanol], for which the 50% effective concentration (EC50) in data set [1] was determined as 0.24 µM.
On to `O=C(O)c1cccc(N2CC(O)(c3ccc(OCc4c(-c5c(Cl)cccc5Cl)noc4C4CC4)cc3Cl)C2)c1` [Compound M2, reference compound], for which, in data set [1], the 50% effective concentration (EC50) amounted to 1.8 µM and the “FXR agonistic activity” value is given as “less active than the compounds of the present invention”.
Take `OC1(c2cnc(OCc3c(-c4c(Cl)cccc4Cl)noc3C3CC3)cn2)CC(c2cccc(Sc3ccccc3)c2)C1` (centres unmarked) [TM-05, 1-(5-((5-cyclopropyl-3-(2,6-dichlorophenyl)isoxazol-4-yl)methoxy)pyrazine-2-yl)-3-(3-(phenylthio)phenyl) cyclobutanol]: in data set [1], the EC50 came to 5.01 µM and the “FXR agonistic activity” value was “poor activity”.
As for `CC[C@H]1[C@@H](O)[C@@H]2[C@H](CC[C@]3(C)[C@@H]([C@H](C)CCC(=O)O)CC[C@@H]23)[C@@]2(C)CC[C@@H](O)C[C@@H]12` [obeticholic acid, reference compound], the “Weight, 0 week” value in data set [2] (0 week, TM compounds 30 mpk, once daily by gavage) turned out to be 23.72 ± 0.46 g. For the same compound, the “Food intake, 1 week” value in data set [2] (1 week, TM 30 mpk, gavage) is reported as 2.992 ± 0.396 g. In data set [2] (1 week, TM compounds 30 mpk, once daily by gavage), the “Weight, 1 week” value worked out at 21.28 ± 0.42 g. Besides, the “Food intake, 2 weeks” value in data set [2] (2 weeks, TM 30 mpk, gavage) was 2.945 ± 0.315 g. Besides, the “Weight, 2 weeks” value in data set [2] (2 weeks, TM compounds 30 mpk, once daily by gavage) is listed as 18.97 ± 0.41 g. Moreover, the “Food intake, 3 weeks” value in data set [2] (3 weeks, TM 30 mpk, gavage) is given as 2.092 ± 0.320 g. In addition, the “Weight, 3 weeks” value in data set [2] (3 weeks, TM compounds 30 mpk, once daily by gavage) is recorded as 17.60 ± 0.35 g. The “Food intake, 4 weeks” value in data set [2] (4 weeks, TM 30 mpk, gavage) is on record as 2.073 ± 0.031 g. Besides, in data set [2] (4 weeks, TM compounds 30 mpk, once daily by gavage), the “Weight, 4 week” value was found to be 15.72 ± 0.35 g. In addition, in data set [2] (after 4 weeks, TM 30 mpk), the liver weight is 0.90 ± 0.03 g and the liver/body weight came to 5.76 ± 0.26 %. In data set [2] (setting [3]), the “ALT, 3 weeks” value turned out to be 323.00 ± 37.79 U/L and the “AST, 3 weeks” value worked out at 197.24 ± 21.54 U/L. Besides, in data set [2] (setting [4]), the “ALT, 4 weeks” value was 93.37 ± 10.36 U/L and the “AST, 4 weeks” value is 126.59 ± 20.25 U/L. Besides, in data set [2] (setting [5]), the “HDL (blood lipid)” value came out at 0.55 ± 0.01 mmol/L, the “LDL (blood lipid)” value is given as 2.80 ± 0.03 mmol/L, the “TC (blood lipid)” value is on record as 0.86 ± 0.04 mmol/L and the “TG (blood lipid)” value was 0.56 ± 0.02 mmol/L. Also, the HE score in data set [2] (liver pathology score (Table 12 criteria), 4 weeks, TM 30 mpk) came out at 2.6. Further, in data set [2] (liver, 4 weeks, TM 30 mpk), the “Sirius red staining area” value is recorded as 0.344 ± 0.057%. For the same compound, in data set [2] (setting [6]), the liver TC stood at 35.7 ± 3.38 µmol/g protein and the liver TG came out at 298 ± 36.2 µmol/g protein.
